Data published in patent publication US20210045385A1, “PYRIDAZINONE-SUBSTITUTED KETOXIMES AS HERBICIDES” (FMC Corporation, priority 2018, published 2021).

Experiments:
Assay type in all cases: in vivo
[1] = system: barnyardgrass (Echinochloa crus-galli); assay: Test A postemergence, visual plant response rating
Description: (§1) Seeds of plant species selected from barnyardgrass (Echinochloa crus-galli), kochia (Kochia scoparia), ragweed (common ragweed, Ambrosia elatior), Italian ryegrass (Lolium multiflorum), foxtail, giant (giant foxtail, Setaria faberii), foxtail, green (green foxtail, Setaria viridis), and pigweed (Amaranthus retroflexus) were planted into a blend of loam soil and sand and treated preemergence with a directed soil spray using test chemicals formulated in a non-phytotoxic solvent mixture which included a surfactant.
(§2) At the same time, plants selected from these weed species and also wheat (Triticum aestivum), corn (Zea mays), blackgrass (Alopecurus myosuroides), and galium (catchweed bedstraw, Galium aparine) were planted in pots containing the same blend of loam soil and sand and treated with postemergence applications of test chemicals formulated in the same manner. Plants ranged in height from 2 to 10 cm and were in the one- to two-leaf stage for the postemergence treatment. Treated plants and untreated controls were maintained in a greenhouse for approximately 10 days, after which time all treated plants were compared to untreated controls and visually evaluated for injury. Plant response ratings, summarized in Table A, are based on a 0 to 100 scale where 0 is no effect and 100 is complete control. A dash (-) response means no test result.

[2] = system: foxtail, giant (giant foxtail, Setaria faberii); assay: Test A postemergence, visual plant response rating
Description: as §1, §2

[3] = system: Italian ryegrass (Lolium multiflorum); assay: Test A postemergence, visual plant response rating
Description: as §1, §2

[4] = system: blackgrass (Alopecurus myosuroides); assay: Test A postemergence, visual plant response rating
Description: as §1, §2

kochia (Kochia scoparia) [5] = assay: Test A postemergence, visual plant response rating
Description: as §1, §2

[6] = system: wheat (Triticum aestivum); assay: Test A postemergence, visual plant response rating
Description: as §1, §2

[7] = system: pigweed (Amaranthus retroflexus); assay: Test A postemergence, visual plant response rating
Description: as §1, §2

[8] = system: galium (catchweed bedstraw, Galium aparine); assay: Test A postemergence, visual plant response rating
Description: as §1, §2

corn (Zea mays) = assay: Test A postemergence, visual plant response rating
Description: as §1, §2

[9] = system: ragweed (common ragweed, Ambrosia elatior); assay: Test A postemergence, visual plant response rating
Description: as §1, §2

[10] = system: barnyardgrass (Echinochloa crus-galli); assay: Test B flooded paddy test, visual plant response rating; details: 250 g ai/ha, Flood, applied to paddy water, 2-leaf stage, evaluated after 13 to 15 days
Protocol: (§3) Plant species in the flooded paddy test selected from rice (Oryza sativa), sedge, umbrella (small-flower umbrella sedge, Cyperus difformis), ducksalad (Heteranhera limosa), and barnyardgrass (Echinochloa crus-galli) were grown to the 2-leaf stage for testing. At time of treatment, test pots were flooded to 3 cm above the soil surface treated by application of test compounds directly to the paddy water, and then maintained at that water depth for the duration of the test. Treated plants and controls were maintained in a greenhouse for 13 to 15 days, after which time all species were compared to controls and visually evaluated. […] A dash (-) response means no test result.

[11] = system: ducksalad (Heteranhera limosa); assay: as above; details: 250 g ai/ha, Flood, applied to paddy water, 2-leaf stage, evaluated after 13 to 15 days
Protocol: as §3

[12] = system: sedge, umbrella (small-flower umbrella sedge, Cyperus difformis); assay: as above; details: 250 g ai/ha, Flood, applied to paddy water, 2-leaf stage, evaluated after 13 to 15 days
Protocol: as §3

rice (Oryza sativa) = assay: as above; details: 250 g ai/ha, Flood, applied to paddy water, 2-leaf stage, evaluated after 13 to 15 days
Protocol: as §3

[13] = system: barnyardgrass (Echinochloa crus-galli); assay: Test A preemergence, visual plant response rating; details: for Barnyardgrass plant response rating (0 to 100 scale): approx. 10 days
Summary of the method: (§4)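 Preemergence: seeds in loam/sand blend given directed soil spray of compound in non-phytotoxic solvent with surfactant. Postemergence: plants 2–10 cm, one- to two-leaf stage, sprayed with same formulation. Visual injury rated vs untreated controls after ~10 days in greenhouse, 0 (no effect) to 100 (complete control).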

[14] = system: foxtail, giant (giant foxtail, Setaria faberii); assay: Test A preemergence, visual plant response rating; details: for Foxtail, Giant plant response rating (0 to 100 scale): approx. 10 days
Summary of the method: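 Greenhouse pot test in loam–sand soil mix: compound in a surfactant-containing non-phytotoxic solvent applied preemergence (directed soil spray) or postemergence (one- to two-leaf plants, 2–10 cm). Injury scored visually after ~10 days, 0–100.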

[15] = system: Italian ryegrass (Lolium multiflorum); assay: Test A preemergence, visual plant response rating; details: for Ryegrass, Italian plant response rating (0 to 100 scale): approx. 10 days
Summary of the method: as §4

kochia (Kochia scoparia) [16] = assay: Test A preemergence, visual plant response rating; details: for Kochia plant response rating (0 to 100 scale): approx. 10 days
Summary of the method: as §4

[17] = system: pigweed (Amaranthus retroflexus); assay: Test A preemergence, visual plant response rating; details: for Pigweed plant response rating (0 to 100 scale): approx. 10 days
Summary of the method: as §4

[18] = system: ragweed (common ragweed, Ambrosia elatior); assay: Test A preemergence, visual plant response rating; details: for Ragweed plant response rating (0 to 100 scale): approx. 10 days
Summary of the method: as §4

[19] = 1000 g ai/ha Postemergence, approx. 10 days
[20] = 1000 g ai/ha, preemergence, 0 to 100 scale, 0 no effect, 100 complete control
[21] = 500 g ai/ha, postemergence, 0 is no effect, 100 is complete control
[22] = Postemergence, 125 g ai/ha, 0 to 100 scale (0 no effect, 100 complete control)

CCON=C(c1cccc(C)c1)c1c(O)c(C)nn(C)c1=O (mixture of isomers) [Compound 6]
Barnyardgrass plant response rating (0 to 100 scale) [1, 19]: 30
Foxtail, Giant plant response rating (0 to 100 scale) [2, 19]: 50
Ryegrass, Italian plant response rating (0 to 100 scale) [3, 19]: 70
Blackgrass plant response rating (0 to 100 scale) [4, 19]: 10
Kochia plant response rating (0 to 100 scale) (kochia (Kochia scoparia) [5]; [19]): 80
Wheat plant response rating (0 to 100 scale) [6, 19]: 0
Pigweed plant response rating (0 to 100 scale) [7, 19]: 80
Galium plant response rating (0 to 100 scale) [8, 19]: 90
Corn plant response rating (0 to 100 scale) (corn (Zea mays); [19]): 0
Ragweed plant response rating (0 to 100 scale) [9, 19]: 90
Plant response rating, Barnyardgrass (0 to 100 scale, 0 is no effect, 100 is complete control) [10]: 0
Plant response rating, Ducksalad (0 to 100 scale, 0 is no effect, 100 is complete control) [11]: 0
Plant response rating, Sedge, Umbrella (0 to 100 scale, 0 is no effect, 100 is complete control) [12]: 0
Plant response rating, Rice (0 to 100 scale, 0 is no effect, 100 is complete control) (rice (Oryza sativa)): 0
Barnyardgrass plant response rating [13, 20]: 30
Foxtail, Giant plant response rating [14, 20]: 30
Ryegrass, Italian plant response rating [15, 20]: 80
Kochia plant response rating (kochia (Kochia scoparia) [16]; [20]): 20
Pigweed plant response rating [17, 20]: 70
Ragweed plant response rating [18, 20]: 50

CON=C(c1cccc(Cl)c1)c1c(O)c(C)nn(C2CC2)c1=O (mixture of isomers) [Compound 33]
Barnyardgrass plant response rating (0 to 100 scale) [1, 21]: 0
Barnyardgrass plant response rating [1, 22]: 0
Foxtail, Giant plant response rating (0 to 100 scale) [2, 21]: 10
Foxtail, Giant plant response rating [2, 22]: 0
Ryegrass, Italian plant response rating (0 to 100 scale) [3, 21]: 60
Ryegrass, Italian plant response rating [3, 22]: 10
Blackgrass plant response rating (0 to 100 scale) [4, 21]: 0
Blackgrass plant response rating [4, 22]: 0
Kochia plant response rating (0 to 100 scale) (kochia (Kochia scoparia) [5]; [21]): 40
Kochia plant response rating (kochia (Kochia scoparia) [5]; [22]): 20
Wheat plant response rating (0 to 100 scale) [6, 21]: 20
Wheat plant response rating [6, 22]: 0
Pigweed plant response rating (0 to 100 scale) [7, 21]: 30
Pigweed plant response rating [7, 22]: 10
Galium plant response rating (0 to 100 scale) [8, 21]: 70
Galium plant response rating [8, 22]: 40
Corn plant response rating (0 to 100 scale) (corn (Zea mays); [21]): 0
Corn plant response rating (corn (Zea mays); [22]): 0
Ragweed plant response rating (0 to 100 scale) [9, 21]: 60
Ragweed plant response rating [9, 22]: 10
Plant response rating, Barnyardgrass (0 to 100 scale, 0 is no effect, 100 is complete control) [10]: 0
Plant response rating, Ducksalad (0 to 100 scale, 0 is no effect, 100 is complete control) [11]: 0
Plant response rating, Sedge, Umbrella (0 to 100 scale, 0 is no effect, 100 is complete control) [12]: 0
Plant response rating, Rice (0 to 100 scale, 0 is no effect, 100 is complete control) (rice (Oryza sativa)): 0
Barnyardgrass plant response rating (0 to 100 scale) ([13]; 125 g ai/ha Preemergence): 0
Barnyardgrass plant response rating (0 to 100 scale) ([13]; 500 g ai/ha Preemergence): 0
Foxtail, Giant plant response rating (0 to 100 scale) ([14]; 125 g ai/ha Preemergence): 0
Foxtail, Giant plant response rating (0 to 100 scale) ([14]; 500 g ai/ha Preemergence): 0
Ryegrass, Italian plant response rating (0 to 100 scale) ([15]; 125 g ai/ha Preemergence): 20
Ryegrass, Italian plant response rating (0 to 100 scale) ([15]; 500 g ai/ha Preemergence): 60
Kochia plant response rating (0 to 100 scale) (kochia (Kochia scoparia) [16]; 125 g ai/ha Preemergence): 0
Kochia plant response rating (0 to 100 scale) (kochia (Kochia scoparia) [16]; 500 g ai/ha Preemergence): 10
Pigweed plant response rating (0 to 100 scale) ([17]; 125 g ai/ha Preemergence): 0
Pigweed plant response rating (0 to 100 scale) ([17]; 500 g ai/ha Preemergence): 70
Ragweed plant response rating (0 to 100 scale) ([18]; 125 g ai/ha Preemergence): 0
Ragweed plant response rating (0 to 100 scale) ([18]; 500 g ai/ha Preemergence): 20
